Data: patent US4017622A, “Piperazine derivatives” (Dainippon Pharmaceutical Co., Ltd., priority 1972, dated 1977)

What was measured:
[1] = tested on: Staphylococcus aureus Terajima; experiment: In vitro antibacterial activity (MIC, serial dilution), Staphylococcus aureus; conditions: nutrient broth, pH 7.0; 37° C for 48 hours
Description: (§6) The minimum inhibitory concentration (MIC) was
(§7) determined by the well known serial dilution method.
(§8) Medium: nutrient broth, pH 7.0 (5 ml/tube)
(§9) Inoculum: 1 drop of 1 : 10^5 dilution of an
overnight broth culture per tube

[2] = tested on: Escherichia coli K-12; experiment: In vitro antibacterial activity (MIC, serial dilution), Escherichia coli; conditions: nutrient broth, pH 7.0; 37° C for 48 hours
Description: as §6, §7, §8, §9
overnight broth culture per tube

[3] = tested on: Pseudomonas aeruginosa Tsuchijima; experiment: In vitro antibacterial activity (MIC, serial dilution), Pseudomonas aeruginosa; conditions: nutrient broth, pH 7.0; 37° C for 48 hours
Description: as §6, §7, §8, §9
overnight broth culture per tube

[4] = tested on: Pseudomonas aeruginosa No. 12; experiment: In vivo efficacy against systemic infection with Pseudomonas aeruginosa in mice; conditions: NO.12, 168 h, male ddY-S mice, ip, twice, about 5 minutes and 6 hours after infection, observation 7 days
Description: (§1) In the Tables II and III, the ED50 and LD50 values were calculated in accordance with the Bcherns-Kaerber method [Arch. Exp. Path, Pharm., 162, 480 (1931)].
(§2) 2) In vivo efficacy against systemic infection with
(§3) Pseudomonas aeruginosa and Salmonella typhimurium
*Experimental conditions:
Organism: Pseudomonas aeruginosa No. 12
Mice: male mice (ddY-S) weighing 20 g approximately.
intraperitoneal infection with 50 to 100
LD50 (about 5 × 10^3 cells/mouse) of a
bacterial suspension in 4% gastric mucin.
twice, about 5 minutes and 6 hours after
(§4) Drug: an alkaline solution (pH 8 - 9) for intraperitoneal
(§5) ip: intraperitoneal administration.

[5] = Acute toxicity in mice; conditions: mouse, in vivo
Description: as §1
3) Acute toxicity in mice
Experimental conditions:
Mice: male mice (ddY-S) weighing 20 g approximately
Drug: alkaline solution (pH 8 - 9) for intravenous
administration and suspension in 0.2%
carboxymethyl cellulose for oral administration.
iv: intravenous administration.
ip: oral administration.

[6] = tested on: Salmonella typhimurium S-9; experiment: In vivo efficacy against systemic infection with Salmonella typhimurium in mice; conditions: Salmonella enterica, 336 h, male ddY-S mice, twice a day for 4 days, observation 14 days
Description: as §1, §2, §3
**Experimental conditions:
Organism: Salmonella typhimurium S-9
Ice: male mice (ddY-S) weighing 20 g approximately.
Intraperitoneal infection with 50 to 100
LD50 (about 10^5 cells/mouse) of a bacterial
suspension in a nutrient broth.
twice a day for 4 days from the day of
as §4
administration and suspension in 0.2% carboxymethyl
cellulose for oral administration.
as §5
po: oral administration.

SMILES: O=C(O)c1cn(Cc2ccccc2)c2cc(N3CCNCC3)ccc2c1=O [compound 1162]
- minimum inhibitory concentration (MIC), Staphylococcus aureus Terajima [1]: 30
- minimum inhibitory concentration (MIC), Escherichia coli K-12 [2]: 1
- minimum inhibitory concentration (MIC), Pseudomonas aeruginosa Tsuchijima [3]: 10

SMILES: CN1CCN(c2ccc3c(=O)c(C(=O)O)cn(Cc4ccccc4)c3c2)CC1 [compound 1147]
- minimum inhibitory concentration (MIC), Staphylococcus aureus Terajima [1]: > 100
- minimum inhibitory concentration (MIC), Escherichia coli K-12 [2]: 1
- minimum inhibitory concentration (MIC), Pseudomonas aeruginosa Tsuchijima [3]: 10

SMILES: C=Cn1cc(C(=O)O)c(=O)c2ccc(N3CCN(C)CC3)cc21 [compound 1493]
- minimum inhibitory concentration (MIC), Staphylococcus aureus Terajima [1]: 100
- minimum inhibitory concentration (MIC), Escherichia coli K-12 [2]: 1
- ED50 [4]: 17.8 mg/kg
- minimum inhibitory concentration (MIC), Pseudomonas aeruginosa Tsuchijima [3]: 3
- LD50 at 168 h ([5]; iv): > 500 mg/kg
- LD50 at 168 h ([5]; po): > 2000 mg/kg
- ED50 ([6]; ip): 3.4 mg/kg
- ED50 ([6]; po): 8.8 mg/kg

SMILES: CCn1cc(C(=O)O)c(=O)c2cnc(N3CCN(C)CC3)cc21 [compound 1317]
- minimum inhibitory concentration (MIC), Staphylococcus aureus Terajima [1]: 30
- minimum inhibitory concentration (MIC), Escherichia coli K-12 [2]: 3
- ED50 [4]: 50 mg/kg
- minimum inhibitory concentration (MIC), Pseudomonas aeruginosa Tsuchijima [3]: 100
- LD50 at 168 h ([5]; iv): > 500 mg/kg
- ED50 ([6]; ip): 14.9 mg/kg
- ED50 ([6]; po): 23.9 mg/kg

SMILES: CCn1cc(C(=O)O)c(=O)c2cnc(N3CCNCC3)cc21 [compound 1367]
- minimum inhibitory concentration (MIC), Staphylococcus aureus Terajima [1]: > 100
- minimum inhibitory concentration (MIC), Escherichia coli K-12 [2]: 3
- ED50 [4]: ~12.5 mg/kg
- minimum inhibitory concentration (MIC), Pseudomonas aeruginosa Tsuchijima [3]: 30
- ED50 ([6]; ip): 54.5 mg/kg
- ED50 ([6]; po): 70.7 mg/kg

SMILES: CCn1cc(C(=O)O)c(=O)c2cnc(N3CCCC3)nc21 [PA, 5,8-dihydro-8-ethyl-2-pyrrolidino-5-oxopyrido [2,3-d]pyrimidine-6-carboxylic acid, reference compound]
- minimum inhibitory concentration (MIC), Staphylococcus aureus Terajima [1]: 10
- minimum inhibitory concentration (MIC), Escherichia coli K-12 [2]: 1
- ED50 [4]: > 100 mg/kg
- minimum inhibitory concentration (MIC), Pseudomonas aeruginosa Tsuchijima [3]: 100
- LD50 at 168 h ([5]; male ddY-S mice, iv, observation 7 days): 268 mg/kg
- LD50 at 168 h ([5]; male ddY-S mice, po, observation 7 days): > 4000 mg/kg

SMILES: C=Cn1cc(C(=O)O)c(=O)c2ccc(N3CCN(C)CC3)nc21 [compound 1276]
- minimum inhibitory concentration (MIC), Staphylococcus aureus Terajima [1]: > 100
- minimum inhibitory concentration (MIC), Escherichia coli K-12 [2]: 1
- minimum inhibitory concentration (MIC), Pseudomonas aeruginosa Tsuchijima [3]: 10

SMILES: CCn1cc(C(=O)O)c(=O)c2ccc(N3CCN(C)CC3)cc21 [compound 1090]
- minimum inhibitory concentration (MIC), Staphylococcus aureus Terajima [1]: 30
- minimum inhibitory concentration (MIC), Escherichia coli K-12 [2]: 1
- ED50 [4]: 91.4 mg/kg
- minimum inhibitory concentration (MIC), Pseudomonas aeruginosa Tsuchijima [3]: 30
- LD50 at 168 h ([5]; iv): > 500 mg/kg
- LD50 at 168 h ([5]; po): 2000 mg/kg
- ED50 ([6]; ip): 9.6 mg/kg
- ED50 ([6]; po): 13.6 mg/kg

SMILES: CCn1cc(C(=O)O)c(=O)c2ccc(N3CCN(C)CC3)nc21 [compound 1225]
- minimum inhibitory concentration (MIC), Staphylococcus aureus Terajima [1]: 100
- minimum inhibitory concentration (MIC), Escherichia coli K-12 [2]: 1
- minimum inhibitory concentration (MIC), Pseudomonas aeruginosa Tsuchijima [3]: 30

SMILES: C=Cn1cc(C(=O)O)c(=O)c2ccc(N3CCNCC3)nc21 [compound 1424]
- minimum inhibitory concentration (MIC), Staphylococcus aureus Terajima [1]: 100
- minimum inhibitory concentration (MIC), Escherichia coli K-12 [2]: 1
- ED50 [4]: 3.9 mg/kg
- minimum inhibitory concentration (MIC), Pseudomonas aeruginosa Tsuchijima [3]: 10
- LD50 at 168 h ([5]; iv): 354 mg/kg
- LD50 at 168 h ([5]; po): > 2000 mg/kg
- ED50 ([6]; ip): 19.3 mg/kg
- ED50 ([6]; po): 22.9 mg/kg

SMILES: C=Cn1cc(C(=O)O)c(=O)c2ccc(N3CCN(CC)CC3)cc21 [compound 1557]
- minimum inhibitory concentration (MIC), Staphylococcus aureus Terajima [1]: 30
- minimum inhibitory concentration (MIC), Escherichia coli K-12 [2]: 1
- ED50 [4]: 19.3 mg/kg
- minimum inhibitory concentration (MIC), Pseudomonas aeruginosa Tsuchijima [3]: 10
- LD50 at 168 h ([5]; iv): 354 mg/kg
- LD50 at 168 h ([5]; po): > 2000 mg/kg
- ED50 ([6]; ip): 5.1 mg/kg
- ED50 ([6]; po): 11.5 mg/kg

SMILES: CCn1cc(C(=O)O)c(=O)c2ccc(N(C)C)nc21 [compound 1249]
- minimum inhibitory concentration (MIC), Staphylococcus aureus Terajima [1]: 100
- minimum inhibitory concentration (MIC), Escherichia coli K-12 [2]: 1
- ED50 [4]: > 100 mg/kg
- minimum inhibitory concentration (MIC), Pseudomonas aeruginosa Tsuchijima [3]: > 100

SMILES: CCn1cc(C(=O)O)c(=O)c2ccc(N3CCNCC3)nc21 [compound 1214]
- minimum inhibitory concentration (MIC), Staphylococcus aureus Terajima [1]: 30
- minimum inhibitory concentration (MIC), Escherichia coli K-12 [2]: 3
- ED50 [4]: 9.2 mg/kg
- minimum inhibitory concentration (MIC), Pseudomonas aeruginosa Tsuchijima [3]: 10
- LD50 at 168 h ([5]; iv): > 500 mg/kg
- ED50 ([6]; ip): 18.7 mg/kg
- ED50 ([6]; po): ~43.8 mg/kg

SMILES: CCn1cc(C(=O)O)c(=O)c2ccc(N3CCNCC3)cc21 [compound 1091]
- minimum inhibitory concentration (MIC), Staphylococcus aureus Terajima [1]: 30
- minimum inhibitory concentration (MIC), Escherichia coli K-12 [2]: 1
- ED50 [4]: 6.3 mg/kg
- minimum inhibitory concentration (MIC), Pseudomonas aeruginosa Tsuchijima [3]: 10
- LD50 at 168 h ([5]; iv): > 500 mg/kg
- LD50 at 168 h ([5]; po): 2000 mg/kg
- ED50 ([6]; ip): 15.5 mg/kg
- ED50 ([6]; po): ~109 mg/kg
